# Earlier results in US20100047803A1, “BIOMARKERS FOR ACETAMINOPHEN TOXICITY” (priority 2008, published 2010).
# Legend:
# [1] = administration after hepatic failure has developed
# [2] = test system: CYP2E1, CYP1A2, and CYP3A4; conditions: by CYP2E1, CYP1A2, and CYP3A4
SMILES,reduction in mortality [1],share of acetaminophen converted to NAPQI [2]
CC(=O)N[C@@H](CS)C(=O)O [N-acetylcysteine],21-28%,–
"CC(=O)Nc1ccc(O)cc1 [acetaminophen, Acetaminophen]",–,5 to 9%
